System: BH4 formation in HaCaT cells
Assay: BH4 formation from sepiapterin in intact HaCaT cells (HPLC)
Assay type: cell-based, human
Details: MTX 1 μM, 2 h, then 200 μM sepiapterin 3 h; BH2 accumulates
Method: The growth medium was then removed and the cells incubated with growth medium containing 100 μM sepiapterin. […] BH2 and BH4 were then analyzed on a Jasco high-performance liquid chromatography system (Easton, MD) fitted with a Maxsil-10 C18 column (250 × 4 mm; Phenomenex, Torrance, CA). […] Cell viability following drug treatments was greater than 95 %.
Fig. 3. Effects of auranofin on BH2 and BH4 production in intact HaCaT cells treated with sepiapterin. HaCaT cells (~1 × 10^6 cells/well in 6 well culture plates) were incubated with control medium or medium containing increasing concentrations of auranofin for 2 h followed by 100 μM sepiapterin. After an additional 3 h, BH2 and BH4 were extracted from the cells and analyzed by HPLC with fluorescence detection. Left panel: Chromatograms showing BH2 and BH4 content of control cells and cells treated with Auranofin.
Fig. 6. […] Cells were treated with control medium or medium containing MTX (1 μM, 2 h), an inhibitor of DHFR, followed by 200 μM sepiapterin (upper panel) or BH2 (lower panel). After an additional 3 h incubation, cells were rinsed with PBS; BH2 and BH4 were then extracted and analyzed by HPLC as described in the Materials and Methods.

Structure (SMILES): CN(Cc1cnc2nc(N)nc(N)c2n1)c1ccc(C(=O)N[C@@H](CCC(=O)O)C(=O)O)cc1 [methotrexate]
- effect on formation of BH4 from sepiapterin in HaCaT cells: inhibit the formation of BH4 from sepiapterin

Reference: PMC13249053, “Mechanism of auranofin toxicity: Inhibition of tetrahydrobiopterin metabolism” (Toxicology and applied pharmacology, 2025)
